# Laboratory results reported in patent US5593989A, “Tetracyclic 1,4-oxazine compounds” (Adir et Compagnie, priority 1994, dated 1997).
# How the values were obtained:
# D3 receptor = experiment: Hypothermia induced in rats by 7-OH-DPAT; format: in vivo, male Wistar rats; conditions: for ΔT °C.: means ± sem
# Description: in vivo: by the capacity of the molecules to modulate hypothermia induced in rats by the D3 dopaminergic agonist, 7-OH-DPAT, control of the body temperature being dependent upon the post-synaptic D3 receptor (M. J. Millan, op. cit.).
# The tests were carried out on male Wistar rats weighing 200-250 g, placed in individual cages with free access to food and water. The products were dissolved in distilled water to which several drops of lactic acid are added. The injections were effected in a volume of 1.0 ml/kg by the subcutaneous route. The doses are expressed in base. The rectal temperature of the rats was recorded using a digital thermal probe (Millan et al., J.P.E.T., 1993, 264, p. 1364-1376). The rats were injected with the compound or vehicle, then put back in their cages for 30 minutes. The rats were then given an injection of 7-OH-DPAT (0.16 mg/kg) and put back in their cages. Thirty minutes later, the rectal temperature was measured and the difference to basal values (ΔT° C.) was determined. The inhibitory dose (95% confidence limit) for reducing the effect of 7-OH-DPAT by 50% was calculated according to Finney's method (Statistical Method in Biological Assays, 2nd ed., Hafner Publishing, New York, 1964).
# [1] = test system: cloned human D3 receptors vs D2 receptors; experiment: D3 vs D2 binding selectivity, cloned human receptors
# Description: (§1) in vitro: by the technique of binding to human and rat D2 and D3 receptors (expressed independently and in a stable manner in CHO cells);
# (§2) The affinity of the compounds for human or rat D3 and D2 receptors (expressed independently and in a stable manner in CHO cells) was determined in membrane preparations using [^125 I]-iodosulpiride as radioligand (Sokoloff et al, op. cit.), raclopride (10 μM) determining the non-specific binding. The results are expressed as IC50. The selectivity is expressed by the ratio of IC50 D2 to IC50 D3.
# [2] = Forced-swimming test (Porsolt); format: in vivo; conditions: for Period of immobility: means ± sem
# Description: The procedure has been described in detail by Porsolt et al. (1978).
# The experiment was carried out over two days, the test taking place on the second day. On the first day, the animal was placed for 15 minutes in a glass cylinder (30 cm×.O slashed.20 cm) filled with water, the temperature of which is maintained at 25° C. On the second day, the day of the test, the product or the solvent was administered to the animal by the subcutaneous route 30 minutes before the beginning of the test, At T0, the animal was placed in a cylinder filled with water for the 5 minutes the test lasted. The total period (expressed in seconds) of immobility of the animal was measured.
# The inhibitory dose (95% confidence limit) for reducing immobility time by 50% was calculated according to Finney's method (Statistical Method in Biological Assays, 2nd ed., Hafner Publishing, New York, 1964).
# [3] = test system: cloned rat D3 receptors vs D2 receptors; experiment: D3 vs D2 binding selectivity, cloned rat receptors
# Description: as §1, §2
structure (smiles),measurement,setting,value
"CCCN1CCO[C@@H]2c3cc4c(cc3CC[C@H]21)CCO4 (relative stereo) [Example 1, trans-3,4,4a,5,6,8,9,11b-octahydrofuro[2,3-b]1,4-oxazino[3,2-h]4-propyl-2H-naphthalene]",inhibitory dose (ID50) for reducing the effect of 7-OH-DPAT by 50%,"D3 receptor; 95% confidence limit in brackets, rats",1.6 (0.7-3.7) mg/kg s.c.
same,ΔT °C.,"D3 receptor; Ex 1 0.16 mg/kg s.c., then 7-OH-DPAT 0.16 mg/kg",-1.8 ± 0.2 °C
same,ΔT °C.,"D3 receptor; Ex 1 0.63 mg/kg s.c., then 7-OH-DPAT 0.16 mg/kg",-1.3 ± 0.2 °C
same,ΔT °C.,"D3 receptor; Ex 1 2.5 mg/kg s.c., then 7-OH-DPAT 0.16 mg/kg, * p < 0.05 versus vehicle/7-OH-DPAT",+0.2 ± 0.2 °C
same,ΔT °C.,"D3 receptor; Ex 1 10.0 mg/kg s.c., then 7-OH-DPAT 0.16 mg/kg, * p < 0.05 versus vehicle/7-OH-DPAT",-0.1 ± 0.2 °C
same,"selectivity for D3 receptors compared with D2 receptors, ratio of IC50 D2 to IC50 D3",[1],45
same,Period of immobility,[2]; dose 0.63 mg/kg s.c.,200.8 ± 17.4 s
same,Period of immobility,[2]; dose 1.25 mg/kg s.c.,107.1 ± 39.7 s
same,Period of immobility,"[2]; dose 2.5 mg/kg s.c., * p < 0.05",63.1 ± 12.4 s
same,Period of immobility,"[2]; dose 10.0 mg/kg s.c., * p < 0.05",28.2 ± 18.1 s
same,ED50,"[2]; sc, 95% confidence limit in brackets, read-out: inhibitory dose (ID50) for reducing immobility time by 50%",1.8 mg/kg
same,"selectivity for D3 receptors compared with D2 receptors, ratio of IC50 D2 to IC50 D3",[3],44
CCCN[C@@H]1CCc2c(OC)cccc2[C@@H]1C [AJ 76],"selectivity for D3 receptors compared with D2 receptors, ratio of IC50 D2 to IC50 D3",[1],2.2
"CCCN(CCC)C1CCc2ccc(O)cc2C1 (stereo not shown) [Example 7-OH-DPAT, reference compound]",ΔT °C.,"D3 receptor; injection 1 vehicle, injection 2 7-OH-DPAT 0.16 mg/kg s.c.",-1.4 ± 0.1 °C
same,"selectivity for D3 receptors compared with D2 receptors, ratio of IC50 D2 to IC50 D3",[3],53
CCCN(CCC)[C@@H]1CCc2c(OC)cccc2[C@@H]1C [(+)UH 232],"selectivity for D3 receptors compared with D2 receptors, ratio of IC50 D2 to IC50 D3",[1],4.8
